In US8003630B2, “Combinatorial therapies for the treatment of neoplasias using the opioid growth factor receptor” (The Penn State Research Foundation, priority 2004, dated 2011):

Columns and labels:
[1] = system: carcinomas of the colon and rectum; details: single agent; cited from earlier work
[2] = metabolized primarily in the liver; cited from earlier work
MiaPaCa-2 cells = assay: Growth curves of MiaPaCa-2 cells, cell proliferation (MTT) assay, absorbency; details: for Significance from 5-FU 10^−6 M Values: 5-FU 10^−5 M alone or with OGF; for Significance from 5-FU 10^−5 M Values: 5-FU 10^−6 M alone or with OGF (b: 5-FU 10^−5 M more inhibitory); for decrease in cell number from controls: MiaPaCa-2
Source text: Cells were counted using a standard MTT assay. In general, each data point represents the average absorbency taken from 10 wells/treatment; error bars represent the S.E.M.

SMILES: O=c1[nH]cc(F)c(=O)[nH]1 [5-FU, 5-fluorouracil]
- mean response rate [1]: less than 20%
- drug appearing unchanged in urine [2]: 10%
- Significance from 5-FU 10^−6 M Values (MiaPaCa-2 cells; 48 h): ###^b (Significantly different from 5-FU 10^−6 M at p < 0.001 (###))
- Significance from 5-FU 10^−5 M Values (MiaPaCa-2 cells; 48 h): ^^^^b (Significantly different from 5-FU 10^−5 M at p < 0.001)
- Significance from 5-FU 10^−6 M Values (MiaPaCa-2 cells; 72 h): ###^b (Significantly different from 5-FU 10^−6 M at p < 0.001 (###))
- Significance from 5-FU 10^−5 M Values (MiaPaCa-2 cells; 72 h): ^^^^b (Significantly different from 5-FU 10^−5 M at p < 0.001)
- Significance from 5-FU 10^−6 M Values (MiaPaCa-2 cells; 96 h): ###^b (Significantly different from 5-FU 10^−6 M at p < 0.001 (###))
- Significance from 5-FU 10^−5 M Values (MiaPaCa-2 cells; 96 h): ^^^^b (Significantly different from 5-FU 10^−5 M at p < 0.001)
- decrease in cell number from controls (MiaPaCa-2 cells; 48 h, 5-FU 10^-5 M and/or OGF 10^−6 M): 26.0%
- decrease in cell number from controls (MiaPaCa-2 cells; 48 h, 5-FU 10^-6 M alone or with OGF 10^−6 M): 12.7%
- decrease in cell number from controls (MiaPaCa-2 cells; 72 h, 5-FU 10^-5 M and/or OGF 10^−6 M): 30.1%
- decrease in cell number from controls (MiaPaCa-2 cells; 72 h, 5-FU 10^-6 M alone or with OGF 10^−6 M): 10.8%
- decrease in cell number from controls (MiaPaCa-2 cells; 96 h, 5-FU 10^-5 M and/or OGF 10^−6 M): 36.4%
- decrease in cell number from controls (MiaPaCa-2 cells; 96 h, 5-FU 10^-6 M alone or with OGF 10^−6 M): 15.2%
